Measured values published in US12275685B2, “Oligo-benzamide analogs and their use in cancer treatment” (Board of Regents, The University of Texas System, priority 2018, dated 2025).
Like-named read-outs stand apart in the source and are kept apart here.

Experiments:
[1] = test system: triple-negative breast cancer cells (TNBC); assay: Growth inhibition of TNBC cells; assay type: cell-based
Source text: (§1) FIGS. 10A & 10B show effects of TK208 against cancer cells.
TNBC is difficult to be treated and currently there are no good drugs available in the market.
(§2) In addition, another tris-benzmaide compound TK208 was synthesized and tested against breast cancer and ovarian cancer cell lines (FIGS. 10-15). […] These compounds (e.g., TK41, TK208, TK308 (FIG. 21), TK309 (FIG. 22), TK314, TK315) are extremely potent compounds that inhibit tumor growth and kill breast and ovarian cancer cells and as such, they are superb therapeutic candidates for such diseases.

[2] = test system: ovarian cancer cells; assay: Growth inhibition of ovarian cancer cells; assay type: cell-based
Source text: as §1, §2

[3] = test system: OCa cells; assay: ER stress (ERS)/UPR induction in OCa cells, RT-PCR and western; assay type: cell-based
Description: FIG. 40: Time course of induction of sXBP1 and CHOP mRNA in 4 OCa cell lines—ES2, SKOV3, OVCAR3 and OVCAR4 by ERX-208. Following treatment of OCa cell lines with 100 nM ERX-208, cells were harvested at various time points and lysates subjected to RT-PCR for both CHOP and sXBP1.
FIG. 41: OCa cells were treated with ERX-208 for 16 h and the status of UPR proteins were determined using western blotting.
(§3) ERX-208. […] Functionally, ERX-208 causes growth inhibition of OCa cells, as noted by MTT assays using five established OCa cells (ES2, SKOV3, A2780, TOV21G, TOV112D) and five primary OCa cells derived from HGSOC patient ascites (AS21, AS23, AS25, AS28, AS29) (FIGS. 42B-C). […] The inventor noted an IC50 of ˜50-100 nM for ERX-208 both for inducing ERS and in reducing the growth of OCa cells.

[4] = test system: OCa cells; assay: MTT assay in OCa cells; assay type: cell-based
Description: (§4) FIGS. 12A-12D show the effect of TK208 against ovarian cancer cell lines ES2 (FIGS. 12A & 12B) and SKOV3 (FIGS. 12C & 12D).
(§5) FIGS. 42A-D: OCa cells were treated with ERX-11 (FIG. 42A) or ERX-208 (FIG. 42B). Primary OCa cells derived from ascites were treated with ERX-208 for 72 h (FIG. 42C) and cell viability by MTT assays. (FIG. 42D) Effect of ERX-208 on viability of IOSE cells was measured using MTT assays and TOV21G was used as +ve control.
as §3

[5] = test system: normal ovarian surface epithelial cells (IOSE); assay: MTT assay in IOSE cells; assay type: cell-based
Description: as §5, §3

[6] = test system: ES2 and SKOV3 ovarian cancer cells; assay: Colony formation assay; assay type: cell-based
Description: FIG. 43: ES2 and SKOV3 cells were treated with ERX-208 and its effect on cell survival was measured using colony formation assays. ****p<0.0001.
as §3

[7] = test system: ES2 and SKOV3 ovarian cancer cells; assay: Matrigel invasion chamber assay; assay type: cell-based
Description: FIG. 44: ES2 and SKOV3 cells were treated with ERX-208 and its effect on invasion was measured using Matrigel invasion chamber assays. ****p<0.0001.
as §3

[8] = test system: OCa cells; assay: Caspase-Glo 3/7 apoptosis assay; assay type: cell-based
Description: as §4
FIG. 45: ERX-208 effect on apoptosis of OCa cells was measured using Caspase-Glo® 3/7 Assays. ****p<0.0001.
as §3

[9] = test system: ES2 and SKOV3 ovarian cancer cells; assay: Cell cycle arrest; assay type: cell-based; details: S phase
[10] = test system: ES2 CDX tumors; assay: ES2 CDX tumors; assay type: in vivo, nude mice; details: 15 days
Description: FIG. 47: ES2/GFP/LUC cells were injected i.p. and tumors established. Mice (n=5) were treated with vehicle or ERX-208 (10 mg/kg/day/i.p). Tumor volume, tumor weight, number of tumor nodules are shown. **p<0.01,****p<0.0001.
(§6) ERX-208 suppressed growth of ES2 CDX tumors. ES2 cells stably labelled with GFP/LUC reporter (2×10^5) were injected i.p. into nude mice. Following establishment of tumors, mice (n=5/group) were randomized and treated for 5 days/week with either 10 mg/kg/ip of ERX-208 or vehicle. […] ERX-208 is effective in reducing growth of HGSOC PDX tumors. Following establishment of PDX tumors, NSG mice (n=6/group) were randomized and treated for 5 days/week with either 10 mg/kg/ip of ERX-208 or vehicle.

[11] = test system: HGSOC PDX tumors; assay: HGSOC PDX tumors; assay type: in vivo, NSG mice; details: 21 days
Description: FIGS. 48A-F: OCa PDX (n=6) tumors were established in the flanks of NSG mice. When the tumors reached 200 mm^3, treatment with vehicle or 10 mg/kg/day/i.p. ERX-208 was initiated. (FIG. 48A) Tumor volume, (FIG. 48B) tumor weight, (FIG. 48C) tumors picture, and
(FIG. 48D) body weight is shown. (FIGS. 48E-F) IHC analysis of GRP 78 as a marker of ER stress *p<0.05; **p<0.01, ****p<0.0001.
as §6

[12] = test system: carboplatin resistant OCa cells; assay: Chemotherapy resistant OCa cells, MTT and apoptosis assay; assay type: cell-based
Description: (§7) FIGS. 49A-F: (FIGS. 49A-B) Effect of ERX-208 on chemotherapy resistant OCa cells was measured by MTT and apoptosis assay. (FIGS. 49C-F) Platinum-resistant PDX tumors were treated with vehicle or ERX-208 (10 mg/kg/day/i.p). Tumor volume (FIG. 49C), weights (FIG. 49D) tumors picture (FIG. 49E), bodyweights (FIG. 49F) are shown. ** P<0.01, ***p<0.001 ****p<0.0001.
(§8) ERX-208 is effective in reducing growth of chemotherapy resistant OCa. OCa initially responds to chemotherapy; however, majority will develop chemotherapy resistance. […] The inventors conducted a proof of principle study using a therapy resistant HGSOC PDX model received from the UTHealth OBGYN PDX core. ERX-208 treatment resulted ˜60% reduction in tumor volume (FIGS. 49C-F).

[13] = test system: therapy resistant HGSOC PDX; assay: Therapy resistant HGSOC PDX model; assay type: in vivo, mice; details: 10 mg/kg/day/i.p
Description: as §7, §8

[14] = test system: ovarian tumor; assay: Ovarian xenograft and PDX models of TK208; assay type: in vivo, mouse
Description: FIGS. 33A-H. FIGS. 33A-D show ovarian cancer xenografts (ES2) treated with vehicle or TK208 (ERX-208). Tumor volume (FIG. 33A), body weight (FIG. 33B) distribution of tumor weights at necropsy (FIG. 33C) and nodules (FIG. 33D) were graphed. FIGS. 33E-H show ovarian PDX tumors were treated with vehicle or TK208 (ERX-208). Tumor volume (FIG. 33E), distribution of tumor weights at necropsy (FIG. 33F) and tumor images (FIG. 33G) and body weight (FIG. 33H) were graphed.
The inventors have tested the in vivo activity of TK208 (ERX-208) using both ovarian xenograft and PDX models.

IC50 [1]: 0.01 to 0.1 µM
IC50 [2]: 0.01 to 0.1 µM
IC50 ([3]; OCa cells, read-out: IC50 for inducing ERS): 0.05 to 0.1 µM
SMILES: CC(C)COc1cc(C(=O)Nc2ccc(C(=O)N[C@H]3CC[C@H](C(=O)Nc4cnc5ccccc5c4)CC3)cc2OCC(C)C)ccc1NC(=O)c1ccc([N+](=O)[O-])c(OCCO)c1 [TK208]
induction of CHOP mRNA ([3]; 100 nM, within 24 h): > 15 fold
induction of sXBP1 mRNA ([3]; 100 nM, within 24 h): > 10 fold
induction of UPR components at the protein level ([3]; multiple OCa cell lines): induce classic UPR components peIF2a, CHOP and LC3B
activity against OCa cells / cell viability [4]: reduces cell viability
IC50 ([4]; read-out: IC50 in reducing the growth of OCa cells): 0.05 to 0.1 µM
activity in IOSE [5]: limited activity
colony formation [6]: reduces colony formation
colony formation ([6]; listed as ERX-208): reduced colony formation
invasion [7]: reduces invasion
invasion ([7]; listed as ERX-208): reduced
apoptosis [8]: promotes apoptosis
growth arrest [9]: promotes growth arrest
reduction of tumor volume ([10]; 10 mg/kg/ip 5 days/week, Xenogen-IVIS): ~60%
body weight ([10]; 10 mg/kg/ip): no significant change in body weight
reduction in tumor nodules ([10]; 10 mg/kg/ip): ~50%
reduction in tumor weight ([10]; 10 mg/kg/ip): ~50%
reduction of tumor volume ([11]; 10 mg/kg/ip 5 days/week): ~68%
body weight ([11]; 10 mg/kg/ip): no significant changes in body weight
reduction in tumor weight ([11]; 10 mg/kg/ip): 60%
apoptosis of carboplatin resistant OCa cells [12]: promoted apoptosis
viability of carboplatin resistant OCa cells [12]: significantly reduced viability
reduction in tumor volume [13]: ~60%
mouse body weight ([14]; mouse, in vivo): no effect on mouse body weight
reduction of ovarian tumor volume ([14]; xenograft and PDX models): good efficacy
